Test results reported in article PMC8931317 (Proceedings of the National Academy of Sciences of the …, 2022).

Biological target: T1, YeiE (CsYeiE) (Cronobacter sakazakii, UniProt H9BVC9)
T1 sequence (H9BVC9 85-288): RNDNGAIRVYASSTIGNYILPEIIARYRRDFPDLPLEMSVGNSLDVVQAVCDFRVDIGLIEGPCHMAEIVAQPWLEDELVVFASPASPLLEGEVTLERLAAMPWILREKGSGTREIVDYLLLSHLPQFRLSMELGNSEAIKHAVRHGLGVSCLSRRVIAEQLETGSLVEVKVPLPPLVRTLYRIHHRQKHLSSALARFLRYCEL
Test: ITC
Assay type: binding

- Kd: 1380 nM
SMILES: O=S(O)O [sulfite]
